# Reference: patent US8680282B2, “Cyclic inhibitors of carnitine palmitoyltransferase and treating cancer” (University Health Network, priority 2007, dated 2014)
# Experiments:
# human CPT1A = biological target: T1, human CPT1A (Homo sapiens, UniProt P50416); experiment: Human CPT1A LC/MS assay; assay type: biochemical; details: human CPT1A LC/MS assay, dose response format
# T1 construct: made in house; host or cells: Saccharomyces cerevisiae (pESC-trp) or cultured mammalian cells (pCDNA3.1); mitochondrial extract
# T1 sequence (P50416 1-773): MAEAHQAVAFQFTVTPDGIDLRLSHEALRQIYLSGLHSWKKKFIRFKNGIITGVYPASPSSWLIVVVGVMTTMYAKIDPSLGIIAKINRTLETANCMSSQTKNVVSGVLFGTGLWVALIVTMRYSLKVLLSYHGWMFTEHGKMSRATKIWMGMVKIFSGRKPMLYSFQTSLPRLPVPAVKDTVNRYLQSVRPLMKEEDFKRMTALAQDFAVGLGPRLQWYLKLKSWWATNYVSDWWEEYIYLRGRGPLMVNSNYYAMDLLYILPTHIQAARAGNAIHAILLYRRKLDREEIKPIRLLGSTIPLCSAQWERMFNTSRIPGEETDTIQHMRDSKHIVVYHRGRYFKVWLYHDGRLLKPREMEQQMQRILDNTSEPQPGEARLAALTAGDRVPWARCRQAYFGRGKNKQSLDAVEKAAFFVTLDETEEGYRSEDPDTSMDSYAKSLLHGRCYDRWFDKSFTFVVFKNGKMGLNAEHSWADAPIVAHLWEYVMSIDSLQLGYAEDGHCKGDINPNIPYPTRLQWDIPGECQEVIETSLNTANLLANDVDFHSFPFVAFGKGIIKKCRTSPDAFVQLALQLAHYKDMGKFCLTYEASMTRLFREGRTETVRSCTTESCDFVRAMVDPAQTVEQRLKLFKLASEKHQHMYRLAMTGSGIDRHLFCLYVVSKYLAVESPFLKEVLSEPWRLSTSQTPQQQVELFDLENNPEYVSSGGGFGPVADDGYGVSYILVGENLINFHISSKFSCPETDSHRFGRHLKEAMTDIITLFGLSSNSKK
# Source text: Nucleotide sequences encoding human CPT1 enzymes were individually cloned into the yeast expression vector pESC-trp at the Cla1 (5′ terminus) and Pac1 (3′ terminus) restriction sites by PCR amplification of the open reading frame using oligonucleotide primers designed to encode the wild-type CPT1 protein sequence. Standard molecular biology techniques were used to transform and express the CPT1 proteins in the yeast Saccharomyces cerevisiae. The yeast cells were lysed by enzymatic degradation of the cell wall by Zymolase, and the mitochondria were isolated by standard biochemical techniques. The integrity of the isolated mitochondria was monitored by determining the activity of succinate dehydrogenase in the mitochondrial preparations. The mitochondrial extracts were stored at −80° C. in buffer containing 10 mM HEPES pH 7.4 and 250 mM sucrose.
# Human CPT1 (A, B, C) genes were additionally cloned into the pCDNA3.1 vector individually for expression in cultured mammalian cells. Cells expressing the exogenous CPT1A were identified and grown under standard conditions. Mammalian cells were harvested, and mitochondrial extracts prepared using standard biochemical methods. The mitochondrial extracts were stored at −80° C. in buffer containing 10 mM HEPES pH 7.4 and 250 mM sucrose.
# Assays were performed in 96-well plate format. Each 100 μL reaction contained 40 mM KCl, 50 mM TrisHCl pH 7.5, and 250 mM mannitol (Assay Buffer), and 1.6 μg protein of an extract, 20 μM palmitoyl-CoA, 50 μM L-carnitine, and 10 ug/mL BSA. Reactions were incubated at room temperature and stopped after 10 minutes by extraction with 200 μL of water saturated n-butanol containing myristoyl carnitine (500 nM) as an internal standard. The samples were thoroughly mixed, and the phases separated by centrifugation. Samples were prepared for analysis with a 10 fold dilution of the n-butanol phase containing the reaction product palmitoyl carnitine into a 50:50 (acetonitrile:water) solvent for analysis. 5 μL of prepared sample was separated on a Phenomenex Jupiter 5μ C4 reverse-phase column using an Agilent 1100 HPLC with a gradient from 50% acetonitrile (0.5% acetic acid) to 100% acetonitrile and quantified by detection with a Bruker Esquire 3000plus mass spectrometer. The abundance of the palmitoyl carnitine product was determined relative to the internal standard and the actual quantity of palmitoyl carnitine can be determined from a standard curve prepared using the n-butanol solution containing the internal standard.
# Compounds were evaluated in two formats, a screening format, and a dose response format. The screening format was performed by adding 25 μL compound in 20% DMSO and Assay Buffer to 25 μL of extract containing […] and Assay Buffer, followed by a 10 minute incubation at room temperature. 50 μL of 40 μM palmitoyl-CoA in Assay Buffer was added to the reaction mixture, mixed and incubated for 10 minutes at room temperature. A negative control for activity was also performed where the carnitine was omitted from the reaction. A positive control for activity was also performed by omitting compound from the solution containing 20% DMSO and Assay Buffer. The reaction mixture was extracted and analyzed as described above. The inhibition by compound was determined by comparing the control relative activity to the relative activity observed in wells containing the compound. Relative activity was determined by subtracting the relative intensity (area palmitoyl carnitine/area myristoyl carnitine) observed in the negative control from the relative intensity observed in the experimental well, and dividing by the relative activity observed in the positive control.
# [formula] Compound characterization by dose response format was performed using the above described assay conditions and a 16 point compound titration in 2 fold compound dilution steps. The DMSO concentration was kept constant at 20% (v/v) for all compound concentrations.
# [1] = tested on: cancer cell lines from breast, lung, colon, brain, prostate and ovarian cancer; experiment: Cancer cell growth inhibition, SRB assay, cell line panel; assay type: cell-based, human; details: cell lines of Tables 2 and 3; for S11: at 10 μM, all lines other than MDA-231, A549, H460, HCT-8
# Description: Human cancer cells (MCF-7, H358, H460, HCT116 p53^+/+, HCT116 p53^−/−, A172, PC-3, DU-145 and SW626) were maintained in DMEM medium containing 10% Fetal Bovine Serum (FBS) (Invitrogen, Burlington, ON, Canada) and normal cells HMEC, 184A1, NHBE and PrEC were cultured in MEGM, MEGM plus transferring and cholera toxin, BEGM and PrEGM supplemented with various growth factors (Cambrex, Charles city, Iowa, USA), respectively.
# Compounds of Examples S1 to S30, and 4-(carboxymethyl)-4-(6-(3-hexyloxy)phenoxy)hexanoamido)-1,1-dimethylpiperidinium 2,2,2-trifluoroactate (“Compound A”) were tested in this example. Each of the tested compounds was dissolved in DMSO and further diluted in cell culture medium for the experiments performed. […] Cell viability was assessed by Sulforhodamine B (SRB) assay at Day 6.
# Sulforhodamine B (SRB) (Sigma, Oakville, ON, Canada) is a water-soluble dye that binds to the basic amino acids of the cellular proteins. […] Absorbance was read at 570 nm on a spectrophotometer. […] Growth inhibition (%) was determined as percentage of cells remaining compared to the DMSO-treated cells as control.
# All of the compounds shown in Tables 2 and 3 had activity against at least one cell line (“NT” means not tested; and “NE” means no activity at 10 micromolar—activity at higher concentrations was not measured).
structure (smiles),measurement,setting,value
"CCCCCc1ccc(S(=O)(=O)NC2(CC(=O)O)CCCN(C)C2)cc1 (centres unmarked) [Example S11, 3-(carboxymethyl)-1-methyl-3-(4-pentylphenylsulfonamido)piperidinium 2,2,2-trifluoroacetate]",IC50,human CPT1A,1 to 10 µM
same,activity against cancer cell lines,[1],did not exihibit activity at 10 μM
